Results from patent US20240216354A1, “IMMUNOMODULATORY IMIDE DRUGS AS ZETA-CHAIN-ASSOCIATED PROTEIN KINASE 70 (ZAP70) AGONISTS AND USES THEREOF” (Dana-Farber Cancer Institute, Inc., priority 2019, published 2024).

What was measured:
[1] = target: T1, Zap-70 (Homo sapiens, UniProt P43403); assay: Pomalidomide-beads pull-down from Jurkat whole cell lysates; type: binding; design: purchased Origene, Rockville, MD; conditions: competitor 1 mM free pomalidomide, 1 h
T1 sequence (P43403 1-619): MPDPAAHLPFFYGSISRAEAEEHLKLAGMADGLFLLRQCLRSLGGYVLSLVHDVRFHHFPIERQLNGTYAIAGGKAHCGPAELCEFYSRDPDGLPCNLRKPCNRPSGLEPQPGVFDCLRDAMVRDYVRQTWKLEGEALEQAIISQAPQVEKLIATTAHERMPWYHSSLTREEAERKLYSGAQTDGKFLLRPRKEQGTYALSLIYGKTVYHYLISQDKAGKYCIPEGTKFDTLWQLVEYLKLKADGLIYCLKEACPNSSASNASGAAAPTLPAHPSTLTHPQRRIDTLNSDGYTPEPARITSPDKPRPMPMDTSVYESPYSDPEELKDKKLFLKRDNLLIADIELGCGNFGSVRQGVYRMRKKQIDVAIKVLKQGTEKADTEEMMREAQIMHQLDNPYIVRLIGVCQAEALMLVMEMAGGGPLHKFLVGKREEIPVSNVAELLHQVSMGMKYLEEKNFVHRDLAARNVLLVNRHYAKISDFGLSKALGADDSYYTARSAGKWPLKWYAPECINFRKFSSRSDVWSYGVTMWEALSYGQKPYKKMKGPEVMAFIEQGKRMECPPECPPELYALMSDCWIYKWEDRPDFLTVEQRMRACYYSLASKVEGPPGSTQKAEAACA
Procedure: (A) Jurkat cells were transfected with scrambled (Sc) siRNA or Zap-70 siRNA. Whole cell lysates were subjected to immunoblotting using indicated Abs. (B) Jurkat cells were treated with lenalidomide ([…]) or pomalidomide (1 and 3 μM) for 4 h and 8 h. Whole cell lysates were subjected to p-Zap ELISA assay. (C) Jurkat whole cell lysates were incubated with pomalidomide-beads in the presence or absence of competitor (1 mM free pomalidomide) for 1 h. After elution, samples were subjected to immunoblotting using anti-Zap-70 Ab. (D) Saturation-transfer difference resulting from the binding of pomalidomide to Zap-70. Pomalidomide is at 320 μM and Zap-70 is approximately 2 μM in deuterated PBS solution. […] (E) Saturation-transfer difference resulting from the binding of pomalidomide to Zap-70 in the presence of 2.56 mMATP. Pomalidomide is at 320 μM and Zap-70 is approximately 2 μM in deuterated PBS solution. […] Note that both ATP and pomalidomide show binding the Zap-70. (F) Non-cell based Zap-70 kinase assay was carried out, according to manufacturer's protocol.

[2] = test system: primary NK cells; assay: Primary NK cell viable cell number by trypan-blue dye exclusion; type: cell-based, human; conditions: primary NK cells #1, #2, pomalidomide 0-0.5 μM, 24 h
Procedure: Isolated primary NK cells from two healthy volunteers were cultured for 24 h with pomalidomide (0-0.5 μM). Viable cell number was measured by trypan-blue dye exclusion.

[3] = test system: granzyme-B (GZM-B); assay: GZM-B expression in primary NK cells (immunoblotting); type: cell-based, human; conditions: primary NK cells #1, #2, pomalidomide 0.3-1 μM, 24 h
Procedure: (A) KHYG1 cells were cultured with pomalidomide (0.25-1 μM) for 24 h. (B) Isolated primary NK cells from healthy volunteers (#1, #2) were cultured with pomalidomide (0.3-1 μM) for 24 h. (C) KHYG-1 cells were transfected with Scsi or Zap-70si. After 48 h, cells were cultured for 24 h in the absence or presence (0.5 μM) of pomalidomide. Whole cell lysates and RNAs were subjected to immunoblotting using indicated Abs.

[4] = target: T1, Zap-70; assay: Immunoblotting of p-Zap-70, p-LAT and p-ERK in PBMCs; type: cell-based; design: endogenous in cells; host or cells: primary PBMCs, primary T cells and primary NK cells from healthy volunteers
Procedure: (A) PBMCs were cultured with pomalidomide (“Pom”) (0.01-1 μM) for 16 h. […] (B) PBMCs were cultured with pomalidomide (0.1 and 1 μM) for the indicated time periods. (C) PBMCs were cultured with lenalidomide (“Len”) (1 μM) for 16 h. (D) Primary T-cells from healthy volunteer were cultured with pomalidomide (0.25-1 μM) for 16 h. (E) Jurkat cells were cultured with pomalidomide (0.5 and 1 μM) for 16 h. Whole cell lysates were subjected to immunoblotting (A-E) using indicated Abs. (F) Jurkat cells were cultured with pomalidomide (0.01-1 μM) or lenalidomide (0.01-1 μM) for 72 h. Cell growth was assessed by MTT assay.
To characterize the effect of IMiDs on Zap-70 function in immune effector cells, pomalidomide triggered phosphorylation of Zap-70 was evaluated along with its known downstream target linker of activated T-cells (LAT) in PBMCs from healthy volunteers. […] Image J densitometric analysis confirmed 42% increased p-Zap-70 after pomalidomide (1 μM) treatment (FIG. 1A, lower panel). The increased p-Zap-70, p-LAT, as well as downstream p-ERK in PBMCs triggered by pomalidomide is also time-dependent (FIG. 1B). […] Since Zap-70 is a mediator of T-cell receptor signaling, whether IMiDs triggered p-Zap-70 in T cells from healthy volunteers was studied.

competition of Zap-70 pull-down by Pom-beads [1]: inhibited by free pomalidomide
increased p-Zap-70, Image J densitometric analysis ([4]; pomalidomide 1 μM, 16 h): 42%
increased p-Zap-70, p-LAT and downstream p-ERK over time ([4]; pomalidomide 0.1 and 1 μM, indicated time periods): time-dependent
SMILES: Nc1cccc2c1C(=O)N(C1CCC(=O)NC1=O)C2=O (stereo not shown) [pomalidomide]
NK cell growth (viable cell number) [2]: without significantly effecting NK cell growth
GZM-B expression [3]: upregulated GZM-B expression
phosphorylation of LAT (immunoblotting) ([4]; 16 h, Pom 0.01-1 μM, Len 1 μM): induced phosphorylation of both Zap-70 and LAT in PBMCs in a dose-dependent fashion
phosphorylation of Zap-70 (immunoblotting) ([4]; 16 h, Pom 0.01-1 μM, Len 1 μM): induced phosphorylation of both Zap-70 and LAT in PBMCs in a dose-dependent fashion
